What follows are compounds tested against T1, human CXCR3 (N-delta 4) (Homo sapiens, UniProt P49682) (assay: Human CXCR3 (N-delta 4) Scintillation Proximity Assay (SPA), [125I] IP-10 binding to Ba/F3-hCXCR3 membranes). Settings: IC50 rating, Table 1; read-out: IC50.
T1 construct: CD8 leader (N); Flag; expressed in transfected cells; membranes prepared
T1 sequence (P49682 5-368 limits assumed): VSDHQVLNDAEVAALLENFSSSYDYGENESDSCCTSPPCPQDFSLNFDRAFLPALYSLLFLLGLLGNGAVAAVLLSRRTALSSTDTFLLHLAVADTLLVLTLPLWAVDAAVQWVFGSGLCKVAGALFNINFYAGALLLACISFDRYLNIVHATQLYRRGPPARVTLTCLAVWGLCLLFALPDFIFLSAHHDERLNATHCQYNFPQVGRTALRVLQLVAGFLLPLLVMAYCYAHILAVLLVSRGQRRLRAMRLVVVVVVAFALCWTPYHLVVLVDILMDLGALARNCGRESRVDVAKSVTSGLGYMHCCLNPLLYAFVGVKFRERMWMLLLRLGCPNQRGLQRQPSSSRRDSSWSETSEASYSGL
Description: The inventive compounds can readily be evaluated to determine activity at the CXCR3 receptors by known methods, such as, for example, development of a human CXCR3 (N-delta 4) Binding Assay.
Cloning and Expression of Human CXCR3 (N-delta 4):
The DNA encoding human CXCR3 was cloned by PCR using human genomic DNA (Promega, Madison, Wis.) as a template. The PCR primers were designed based on the published sequence of human orphan receptor GPR9 (1) with incorporated restriction sites, a Kozak consensus sequence, CD8 leader and Flag tag. The PCR product was subcloned into the mammalian expression vector pME18Sneo, a derivative of the SR-alpha expression vector (designated as pME18Sneo-hCXCR3 (N-delta 4).
IL-3-dependent mouse pro-B cells Ba/F3 were transfected by electroporation in 0.4 ml Dulbecco's PBS containing 4×10^6 cells with 20 μg of pME18Sneo-hCXCR3 (N-delta 4) plasmid DNA. Cells were pulsed at 400 Volts, 100 OHMs, 960 μFd. The transfected cells were under selection with 1 mg/ml G418 (Life Technologies, Gaithersburg, Md.). G418-resistant Ba/F3 clones were screened for CXCR3 expression by specific binding of [^125I] IP-10 (NEN Life Science Products, Boston, Mass.).
Preparation of Ba/F3-hCXCR3 (N-delta 4) Membranes:
Ba/F3 cells expressing human CXCR3 (N-delta 4) were pelleted and resuspended in the lysis buffer containing 10 mM HEPES, pH 7.5 and Complete® protease inhibitors (1 tablet per 100 ml) (Boehringer Mannheim, Indianapolis, Ind.) at a cell density of 20×10^6 cells per ml. After 5 minute incubation on ice, cells were transferred to 4639 cell disruption bomb (Parr Instrument, Moline, Ill.) and applied with 1,500 psi of nitrogen for 30 minutes on ice. Large cellular debris was removed by centrifugation at 1,000×g. Cell membrane in the supernatant was sedimented at 100,000×g. The membrane was resuspended in the lysis buffer supplemented with 10% sucrose and stored at −80° C. Total protein concentration of the membrane was determined by BCA method from Pierce (Rockford, Ill.).
Human CXCR3 (N-delta 4) Scintillation Proximity Assay (SPA):
For each assay point, 2 μg of membrane was preincubated for 1 hr with 300 μg wheat germ agglutinin (WGA) coated SPA beads (Amersham, Arlington Heights, Ill.) in the binding buffer (50 mM HEPES, 1 mM CaCl2, 5 mM MgCl2, 125 mM NaCl, 0.002% NaN3, 1.0% BSA) at room temperature. The beads were spun down, washed once, resuspended in the binding buffer and transferred to a 96-well Isoplate (Wallac, Gaithersburg, Md.). 25 pM of [^125I] IP-10 with tested compounds in a series of titration were added to start the reaction. After 3 hr reaction at room temperature, the amount of [^125I] IP-10 bound to the SPA beads was determined with a Wallac 1450 Microbeta counter.
The Ki ratings for the various compounds of the present invention are given in the afore-mentioned Table 1. From these ratings and value ranges, it would be apparent to the skilled artisan that the compounds of the invention have excellent utility as CXCR3 receptor antagonists.

Row | SMILES | IC50 [nM]
1 | CC[C@H]1CN(c2nc(N)c(C(N)=O)nc2Cl)CCN1C1CCN(Cc2ccc(Cl)cc2)CC1 [compound 1] | < 25
2 | CC[C@H]1CN(c2nc(N)c(C(N)=O)nc2Cl)CCN1C1CCN(Cc2ccc(Cl)cc2C(=N)N)CC1 [compound 2] | < 25
3 | CC[C@H]1CN(c2nc(N)c(C(N)=O)nc2Cl)CCN1C1CCN(C(CO)c2ccc(Cl)cc2)CC1 (some centres unmarked) [compound 3] | < 25
4 | CC[C@H]1CN(c2nc(N)c(C(N)=O)nc2Cl)CCN1C1CCN(Cc2ccc(Cl)cc2C(O)CO)CC1 (some centres unmarked) [compound 7] | < 25
5 | CC[C@H]1CN(c2nc(N)c(C(N)=O)nc2Cl)CCN1C1CCN(Cc2ccc(Cl)cc2C(N)=O)CC1 [compound 8] | < 25
6 | CC[C@H]1CN(c2nc(N)c(C(N)=O)nc2Cl)CCN1C1CCN(Cc2ccc(OC(F)(F)F)cc2)CC1 [compound 9] | < 25
7 | CC[C@H]1CN(c2nc(N)c(C(N)=O)nc2Cl)CCN1C1CCN(Cc2ccc(Cl)cc2F)CC1 [compound 10] | < 25
8 | CC[C@H]1CN(c2nc(N)c(C(N)=O)nc2Cl)CCN1C1CCN(Cc2ccc(Cl)cc2[C@H](O)C(N)=O)CC1 [compound 11] | < 25
9 | CC[C@H]1CN(c2nc(N)c(C(N)=O)nc2Cl)CCN1C1CCN(Cc2ccc(Cl)cc2[C@H](O)C(=O)NC)CC1 [compound 12] | < 25
10 | CC[C@H]1CN(c2nc(N)c(C(N)=O)nc2Cl)CCN1C1CCN(Cc2ccc(C(=O)OC)cc2)CC1 [compound 15] | < 25
11 | CC[C@H]1CN(c2nc(N)c(C(N)=O)nc2Cl)CCN1C1CCN(Cc2ccc(C#N)cc2)CC1 [compound 16] | < 25
12 | CC[C@H]1CN(c2nc(N)c(C(N)=O)nc2Cl)CCN1C1CCN(Cc2ccc(Cl)cc2CC(N)=O)CC1 [compound 17] | < 25
13 | CC[C@H]1CN(c2nc(N)c(C(N)=O)nc2Cl)CCN1C1CCN(Cc2ccc(Cl)cc2C(O)C(=O)N(C)C)CC1 (some centres unmarked) [compound 18] | < 25
14 | CC[C@H]1CN(c2nc(N)c(C(N)=O)nc2Cl)CCN1C1CCN(Cc2ccc(Cl)cc2CC(=O)NCC(C)O)CC1 (some centres unmarked) [compound 21] | < 25
15 | CC[C@H]1CN(c2nc(N)c(C(N)=O)nc2Cl)CCN1C1CCN(Cc2ccc(Cl)cc2-c2nnn[nH]2)CC1 [compound 23] | 25 to 100
16 | CC[C@H]1CN(c2nc(N)c(C(N)=O)nc2Cl)CCN1C1CCN(Cc2ccc(Cl)cc2C2COC(=O)O2)CC1 (some centres unmarked) [compound 24] | 25 to 100
17 | CC[C@H]1CN(c2nc(N)c(C(N)=O)nc2Cl)CCN1C1CCN(Cc2ccc(Cl)cc2C(=O)O)CC1 [compound 26] | 25 to 100
18 | CC[C@H]1CN(c2nc(N)c(C(N)=O)nc2Cl)CCN1C1CCN(Cc2ccc(Cl)cc2[C@@H](O)C(N)=O)CC1 [compound 28] | 25 to 100
19 | CC[C@H]1CN(c2nc(N)c(C(N)=O)nc2Cl)CCN1C1CCN(Cc2ccc(Cl)cc2CC(C)(C)O)CC1 [compound 30] | 25 to 100
20 | CC[C@H]1CN(c2nc(N)c(C(N)=O)nc2Cl)CCN1C1CCN(Cc2ccc(Cl)cc2C(=O)OC)CC1 [compound 31] | 25 to 100
21 | CC[C@H]1CN(c2nc(N)c(C(N)=O)nc2Cl)CCN1C1CCN(Cc2ccc(Cl)cc2CCNC=O)CC1 [compound 32] | 25 to 100
22 | CC[C@H]1CN(c2nc(N)c(C(N)=O)nc2Cl)CCN1C1CCN(Cc2ccc(Cl)cc2CC(=O)O)CC1 [compound 37] | 25 to 100
23 | CC[C@H]1CN(c2nc(N)c(C(N)=O)nc2Cl)CCN1C1CCN(Cc2ccc(Cl)cc2CC(=O)OC)CC1 [compound 38] | 25 to 100
24 | CC[C@H]1CN(c2nc(N)c(C(N)=O)nc2Cl)CCN1C1CCN([C@@H](C(=O)O)c2ccc(Cl)cc2)CC1 [compound 40] | 25 to 100
25 | CC[C@H]1CN(c2nc(N)c(C(N)=O)nc2Cl)CCN1C1CCN(Cc2ccc(Cl)cc2CCNC(C)=O)CC1 [compound 41] | 25 to 100
26 | CC[C@H]1CN(c2nc(N)c(C(N)=O)nc2Cl)CCN1C1CCN(Cc2ccc(Cl)cc2CC(=O)N(C)C)CC1 [compound 42] | > 100

Continued, values first:

Row | IC50 [nM] | SMILES
27 | < 25 | CC[C@H]1CN(c2nc(N)c(C(N)=O)nc2Cl)CCN1C1CCN(Cc2ccc(Cl)cc2CCO)CC1 [compound 4]
28 | < 25 | CC[C@H]1CN(c2nc(N)c(C(N)=O)nc2Cl)CCN1C1CCN([C@@H](CO)c2ccc(Cl)cc2)CC1 [compound 5]
29 | < 25 | CC[C@H]1CN(c2nc(N)c(C(N)=O)nc2Cl)CCN1C1CCN(Cc2ccc(Cl)cc2CCN)CC1 [compound 6]
30 | < 25 | CC[C@H]1CN(c2nc(N)c(C(N)=O)nc2Cl)CCN1C1CCN(Cc2ccc(Cl)cc2CCNC(=O)OC(C)(C)C)CC1 [compound 13]
31 | < 25 | CC[C@H]1CN(c2nc(N)c(C(N)=O)nc2Cl)CCN1C1CCN(Cc2ccc(Cl)cc2C(C)CO)CC1 (some centres unmarked) [compound 14]
32 | < 25 | CC[C@H]1CN(c2nc(N)c(C(N)=O)nc2Cl)CCN1C1CCN(Cc2ccc(Cl)cc2C(C)(C)CO)CC1 [compound 19]
33 | < 25 | CC[C@H]1CN(c2nc(N)c(C(N)=O)nc2Cl)CCN1C1CCN(Cc2ccc(Cl)cc2C#N)CC1 [compound 20]
34 | < 25 | CC[C@H]1CN(c2nc(N)c(C(N)=O)nc2Cl)CCN1C1CCN(Cc2ccc(Cl)cc2CC(=O)NCC2CCCO2)CC1 (some centres unmarked) [compound 22]
35 | 25 to 100 | CC[C@H]1CN(c2nc(N)c(C(N)=O)nc2Cl)CCN1C1CCN(Cc2ccc(-n3cccn3)cc2)CC1 [compound 25]
36 | 25 to 100 | CC[C@H]1CN(c2nc(N)c(C(N)=O)nc2Cl)CCN1C1CCN(Cc2ccc(Cl)cc2NC(=O)C(C)O)CC1 (some centres unmarked) [compound 27]
37 | 25 to 100 | C[C@H]1CN(c2nc(N)c(C(N)=O)nc2Cl)CCN1C1CCN(Cc2ccc(Cl)cc2)CC1 [compound 29]
38 | 25 to 100 | CC[C@H]1CN(c2nc(N)c(C(N)=O)nc2Cl)CCN1C1CCN(Cc2ccc(Cl)cc2CC#N)CC1 [compound 33]
39 | 25 to 100 | CC[C@H]1CN(c2nc(N)c(C(N)=O)nc2Cl)CCN1C1CCN(Cc2ccc(Cl)cc2CCNC(N)=O)CC1 [compound 34]
40 | 25 to 100 | CC[C@H]1CN(c2nc(N)c(C(N)=O)nc2Cl)CCN1C1CCN(Cc2ccc(Cl)cc2CC(=O)NC)CC1 [compound 35]
41 | 25 to 100 | CC[C@H]1CN(c2nc(N)c(C(N)=O)nc2Cl)CCN1C1CCN(Cc2ccc(Cl)cc2CCNS(C)(=O)=O)CC1 [compound 36]
42 | 25 to 100 | CC[C@H]1CN(c2nc(N)c(C(N)=O)nc2Cl)CCN1C1CCN(Cc2ccc(Cl)cc2CCNC(=O)OC)CC1 [compound 39]
43 | > 100 | CC[C@H]1CN(c2nc(N)c(C(N)=O)nc2Cl)CCN1C1CCN(Cc2ccc(Cl)cc2C2NC(=O)NC2=O)CC1 (some centres unmarked) [compound 43]

Same assay, conditions: human; read-out: human IC50

Row | SMILES | IC50 [nM]
44 | CC[C@H]1CN(c2nc(N)c(C(=O)NC)nc2Cl)CCN1C1CCN(Cc2ccc(Cl)cc2)CC1 [Formula 9] | < 1
45 | CC[C@H]1CN(c2ncc(C(=O)NC3CC3)nc2C)CCN1C1CCN(Cc2ccc(Cl)cc2)CC1 [Formula 10] | < 1
46 | CC[C@H]1CN(c2ncc(C(=O)NC3CC3)nc2C)CCN1C1CCN([C@@H](CO)c2ccc(Cl)cc2)CC1 [Formula 12] | < 1
47 | CC[C@H]1CN(c2ncc(C(N)=O)nc2C(F)(F)F)CCN1C1CCN(C(=O)c2ccc(Cl)cc2)CC1 [Formula 13] | < 1

Second part, the compound after the results:

Row | IC50 [nM] | SMILES
48 | < 1 | CC[C@H]1CN(c2nc(N)c(C(=O)NCCO)nc2Cl)CCN1C1CCN(Cc2ccc(Cl)cc2CO)CC1 [Formula 7]
49 | < 1 | CC[C@H]1CN(c2nc(N)c(C(=O)NCCO)nc2Cl)CCN1C1CCN([C@@H](CO)c2ccc(Cl)cc2)CC1 [Formula 8]
50 | < 1 | CC[C@H]1CN(c2ncc(C(=O)NC3CC3)nc2C)CCN1C1CCN(Cc2ccc(F)c(F)c2)CC1 [Formula 11]

From patent publication US7868005B2, “Pyrazinyl substituted piperazine-piperidines with CXCR3 antagonist activity” (Schering Corporation, priority 2005, dated 2011)
